According to patent publication US20220162191A1, “SMALL MOLECULE MODULATORS OF IL-17” (LEO PHARMA A/S, priority 2019, published 2022):

Biological target: T1, human IL-17AA (Homo sapiens, UniProt Q16552)
T1 construct: host or cells: HEK (human embryonic kidney) cells
T1 sequence (Q16552 24-155) 1: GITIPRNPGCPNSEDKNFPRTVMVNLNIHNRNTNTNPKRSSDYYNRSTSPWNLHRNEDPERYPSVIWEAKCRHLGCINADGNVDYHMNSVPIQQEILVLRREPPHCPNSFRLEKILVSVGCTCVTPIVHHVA
T1 sequence (Q16552 24-155) 2: T1 sequence (Q16552 24-155) 1
Test: IL-8 release assay in human epithelial keratinocytes adult (HEKa)
Type: cell-based
Settings: 3 ng/ml human IL-17AA + 10 ng/ml human TNFalpha, 68-72 h, IL-8 by HTRF, read-out: Rel EC50 L-8 release assay
Outline: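 IL-8 secretion, quantified by HTRF (665/620 nm) as percent of controls, served as the readout after 68–72 h culture of HEKa cells with compound plus IL-17AA (3 ng/ml final) and TNF-alpha (10 ng/ml final). Four-parameter logistic curves gave relative IC50 and Emax.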

EC50, < 100 nM:
Cc1cnn(C)c1-c1ccc(NC(=O)[C@H](Cc2cc(-c3ccc(=O)n(C(C)C)c3)ccc2Cl)NC(=O)c2conc2C)cc1 [Example 118, N-[(1S)-1-[[2-chloro-5-(1-isopropyl-6-oxo-3-pyridyl)phenyl]methyl]-2-[4-(2,4-dimethylpyrazol-3-yl)anilino]-2-oxo-ethyl]-3-methyl-isoxazole-4-carboxamide]
Cc1nocc1C(=O)N[C@@H](Cc1cc(-c2ccnc(C(O)C3CC3)c2)ccc1Cl)C(=O)Nc1ccc(-c2cncn2C)cc1 (stereo partly drawn) [Example 123, N-[(1S)-1-[[2-chloro-5-[2-[cyclopropyl(hydroxy)methyl]-4-pyridyl]phenyl]methyl]-2-[4-(3-methylimidazol-4-yl)anilino]-2-oxo-ethyl]-3-methyl-isoxazole-4-carboxamide]
Cc1nocc1C(=O)N[C@@H](Cc1cc(-c2ccc(=O)n(C(C)C)c2)ccc1Cl)C(=O)Nc1ccc(-c2cncn2C)c(O)c1 [Example 132, N-[(1S)-1-[[2-chloro-5-(1-isopropyl-6-oxo-3-pyridyl)phenyl]methyl]-2-[3-hydroxy-4-(3-methylimidazol-4-yl)anilino]-2-oxo-ethyl]-3-methyl-isoxazole-4-carboxamide]
Cc1n[nH]c(C)c1-c1ccc(NC(=O)[C@H](Cc2cc(-c3ccc(=O)n(C(C)C)c3)ccc2Cl)NC(=O)C2(F)CC2)cc1 [Example 137, N-[(1S)-1-[[2-chloro-5-(1-isopropyl-6-oxo-3-pyridyl)phenyl]methyl]-2-[4-(3,5-dimethyl-1H-pyrazol-4-yl)anilino]-2-oxo-ethyl]-1-fluoro-cyclopropanecarboxamide]

EC50, 100 to 1000 nM:
Cc1cnn(C)c1-c1ccc(NC(=O)[C@H](Cc2cc(-c3ccc(=O)n(C(C)C)c3)ccc2Cl)NC(=O)C2(F)CC2)cc1 [Example 119, N-[(1S)-1-[[2-chloro-5-(1-isopropyl-6-oxo-3-pyridyl)phenyl]methyl]-2-[4-(2,4-dimethylpyrazol-3-yl)anilino]-2-oxo-ethyl]-1-fluoro-cyclopropanecarboxamide]
Cc1nocc1C(=O)NC(Cc1cc(-c2cccc(C(=O)N3CC(F)C3)c2)ccc1Cl)C(=O)Nc1ccc(-c2nncn2C)cc1 (stereo not drawn) [Example 120, N-[1-[[2-chloro-5-[3-(3-fluoroazetidine-1-carbonyl)phenyl]phenyl]methyl]-2-[4-(4-methyl-1,2,4-triazol-3-yl)anilino]-2-oxo-ethyl]-3-methyl-isoxazole-4-carboxamide]
CC(C)n1cc(-c2ccc(Cl)c(CC(NC(=O)c3ccnn3C)C(=O)Nc3ccc(-c4c[nH]nc4C(F)(F)F)cc3)c2)ccc1=O (stereo not drawn) [Example 121, N-[1-[[2-chloro-5-(1-isopropyl-6-oxo-3-pyridyl)phenyl]methyl]-2-oxo-2-[4-[3-(trifluoromethyl)-1H-pyrazol-4-yl]anilino]ethyl]-2-methyl-pyrazole-3-carboxamide]
CC(C)Oc1cccc(-c2ccc(Cl)c(CC(NC(=O)c3ccnn3C)C(=O)Nc3ccc(-c4nncn4C)cc3)c2)c1 (stereo not drawn) [Example 122, N-[1-[[2-chloro-5-(3-isopropoxyphenyl)phenyl]methyl]-2-[4-(4-methyl-1,2,4-triazol-3-yl)anilino]-2-oxo-ethyl]-2-methyl-pyrazole-3-carboxamide]
Cn1cncc1-c1ccc(NC(=O)[C@H](Cc2cc(-c3ccnc(C(O)C4CC4)c3)ccc2Cl)NC(=O)C2(F)CC2)cc1 (stereo partly drawn) [Example 124, N-[(1S)-1-[[2-chloro-5-[2-[cyclopropyl(hydroxy)methyl]-4-pyridyl]phenyl]methyl]-2-[4-(3-methylimidazol-4-yl)anilino]-2-oxo-ethyl]-1-fluoro-cyclopropanecarboxamide]
Cc1nocc1C(=O)N[C@@H](Cc1cc(-c2ccnc(C(O)C3CC3)c2)ccc1Cl)C(=O)Nc1ccc(-n2ccnc2C)cc1 (stereo partly drawn) [Example 125, N-[(1S)-1-[[2-chloro-5-[2-[cyclopropyl(hydroxy)methyl]-4-pyridyl]phenyl]methyl]-2-[4-(2-methylimidazol-1-yl)anilino]-2-oxo-ethyl]-3-methyl-isoxazole-4-carboxamide]
Cc1nccn1-c1ccc(NC(=O)[C@H](Cc2cc(-c3ccnc(C(O)C4CC4)c3)ccc2Cl)NC(=O)C2(F)CC2)cc1 (stereo partly drawn) [Example 126, N-[(1S)-1-[[2-chloro-5-[2-[cyclopropyl(hydroxy)methyl]-4-pyridyl]phenyl]methyl]-2-[4-(2-methylimidazol-1-yl)anilino]-2-oxo-ethyl]-1-fluoro-cyclopropanecarboxamide]
Cc1nocc1C(=O)N[C@@H](Cc1cc(-c2ccnc(C(C)(C)C)c2)ccc1Cl)C(=O)Nc1ccc(-c2nncn2C)cc1 [Example 128, N-[(1S)-1-[[5-(2-tert-butyl-4-pyridyl)-2-chloro-phenyl]methyl]-2-[4-(4-methyl-1,2,4-triazol-3-yl)anilino]-2-oxo-ethyl]-3-methyl-isoxazole-4-carboxamide]
Cc1[nH]ncc1-c1ccc(NC(=O)C(Cc2cc(-c3ccc(=O)n(C(C)C)c3)ccc2Cl)NC(=O)C2(F)CC2)cc1 (stereo not drawn) [Example 129, N-[1-[[2-chloro-5-(1-isopropyl-6-oxo-3-pyridyl)phenyl]methyl]-2-[4-(5-methyl-1H-pyrazol-4-yl)anilino]-2-oxo-ethyl]-1-fluoro-cyclopropanecarboxamide]
Cn1cnnc1-c1ccc(NC(=O)C(Cc2cc(-c3ccc(O)c(CN4CCOCC4)c3)ccc2Cl)NC(=O)c2ccnn2C)cc1 (stereo not drawn) [Example 130, N-[1-[[2-chloro-5-[4-hydroxy-3-(morpholinomethyl)phenyl]phenyl]methyl]-2-[4-(4-methyl-1,2,4-triazol-3-yl)anilino]-2-oxo-ethyl]-2-methyl-pyrazole-3-carboxamide]
CC(C)n1cc(-c2ccc(Cl)c(C[C@H](NC(=O)OC3CC3)C(=O)Nc3ccc(-c4nncn4C)cc3)c2)ccc1=O [Example 131, cyclopropyl N-[(1S)-1-[[2-chloro-5-(1-isopropyl-6-oxo-3-pyridyl)phenyl]methyl]-2-[4-(4-methyl-1,2,4-triazol-3-yl)anilino]-2-oxo-ethyl]carbamate]
CC(C)n1cc(-c2ccc(Cl)c(C[C@H](NC(=O)C3(F)CC3)C(=O)Nc3ccc(-c4cncn4C)c(O)c3)c2)ccc1=O [Example 133, N-[(1S)-1-[[2-chloro-5-(1-isopropyl-6-oxo-3-pyridyl)phenyl]methyl]-2-[3-hydroxy-4-(3-methylimidazol-4-yl)anilino]-2-oxo-ethyl]-1-fluoro-cyclopropanecarboxamide]
CC(C)n1cc(-c2ccc(Cl)c(C[C@H](NC(=O)OC(C)(C)C)C(=O)Nc3ccc(-c4cncn4C)c(F)c3)c2)ccc1=O [Example 134, tert-butyl N-[(1S)-1-[[2-chloro-5-(1-isopropyl-6-oxo-3-pyridyl)phenyl]methyl]-2-[3-fluoro-4-(3-methylimidazol-4-yl)anilino]-2-oxo-ethyl]carbamate]
CC(C)n1cc(-c2ccc(Cl)c(C[C@H](NC(=O)c3ccnn3C)C(=O)Nc3ccc(-c4cncn4C)c(F)c3)c2)ccc1=O [Example 135, N-[(1S)-1-[[2-chloro-5-(1-isopropyl-6-oxo-3-pyridyl)phenyl]methyl]-2-[3-fluoro-4-(3-methylimidazol-4-yl)anilino]-2-oxo-ethyl]-2-methyl-pyrazole-3-carboxamide]
Cc1n[nH]cc1-c1ccc(NC(=O)[C@H](Cc2cc(-c3ccc(=O)n(C(C)C)c3)ccc2Cl)NC(=O)C2(F)CC2)cc1 [Example 136, N-[(1S)-1-[[2-chloro-5-(1-isopropyl-6-oxo-3-pyridyl)phenyl]methyl]-2-[4-(3-methyl-1H-pyrazol-4-yl)anilino]-2-oxo-ethyl]-1-fluoro-cyclopropanecarboxamide]
CC(C)n1cc(-c2ccc(Cl)c(C[C@H](NC(=O)c3ccnn3C)C(=O)Nc3ccc(-c4cn[nH]c4)c(F)c3)c2)ccc1=O [Example 138, N-[(1S)-1-[[2-chloro-5-(1-isopropyl-6-oxo-3-pyridyl)phenyl]methyl]-2-[3-fluoro-4-(1H-pyrazol-4-yl)anilino]-2-oxo-ethyl]-2-methyl-pyrazole-3-carboxamide]

EC50, > 1000 nM:
CC(C)CC(=O)N[C@@H](Cc1cc(-c2ccc(=O)n(C(C)C)c2)ccc1Cl)C(=O)Nc1ccc(-c2nncn2C)cc1 [Example 115, N-[(1S)-1-[[2-chloro-5-(1-isopropyl-6-oxo-3-pyridyl)phenyl]methyl]-2-[4-(4-methyl-1,2,4-triazol-3-yl)anilino]-2-oxo-ethyl]-3-methyl-butanamide]
CC(C)n1cc(-c2ccc(Cl)c(C[C@H](NC(=O)CC3CC3)C(=O)Nc3ccc(-c4nncn4C)cc3)c2)ccc1=O [Example 116, (2S)-3-[2-chloro-5-(1-isopropyl-6-oxo-3-pyridyl)phenyl]-2-[(2-cyclopropylacetyl)amino]-N-[4-(4-methyl-1,2,4-triazol-3-yl)phenyl]propanamide]
CC(C)n1cc(-c2ccc(Cl)c(C[C@H](NC(=O)C3(C(F)(F)F)CC3)C(=O)Nc3ccc(-c4nncn4C)cc3)c2)ccc1=O [Example 117, N-[(1S)-1-[[2-chloro-5-(1-isopropyl-6-oxo-3-pyridyl)phenyl]methyl]-2-[4-(4-methyl-1,2,4-triazol-3-yl)anilino]-2-oxo-ethyl]-1-(trifluoromethyl) cyclopropanecarboxamide]
CC(C)n1cc(-c2ccc(Cl)c(C[C@H](NC(=O)CC3CCC3)C(=O)Nc3ccc(-c4nncn4C)cc3)c2)ccc1=O [Example 127, (2S)-3-[2-chloro-5-(1-isopropyl-6-oxo-3-pyridyl)phenyl]-2-[(2-cyclobutylacetyl)amino]-N-[4-(4-methyl-1,2,4-triazol-3-yl)phenyl]propanamide]
